Measurements reported in US9120805B2, “Substituted pyrrolo[1,2-A]pyrazin-1-ones and pyrazolo[1,5-A]pyrazin-4-ones as inhibitors of tankyrase and poly(ADP-ribose)polymerase activity” (Merck Patent GmbH, priority 2012, dated 2015).

How the values were obtained:
[1] = target: T1, GST-tagged Tankyrase-2 (873-1166 aa) (Homo sapiens, UniProt Q9H2K2); assay: Tankyrase 2 autoparsylation assay (HTRF enzyme assay); type: biochemical
T1 construct: GST-tagged Tankyrase-2 (873-1166 aa)
Method: (§1) Biochemical Activity Testing of Tankyrase 1 and 2: Autoparsylation Assay
(§2) The autoparsylation assay is run in two steps: the enzymatic reaction in which GST-tagged Tankyrase-1, resp Tankyrase-2 transferred biotinylated ADP-ribose to itself from biotinylated NAD as co-substrate and the detection reaction where a time resolved FRET between cryptate labelled anti-GST bound to the GST tag of the enzyme and Xlent® labelled-streptavidin bound the biotin-parsylation residue is analysed. The autoparsylation activity was detectable directly via the increase in HTRF signal.
(§3) The autoparsylation assay is performed as 384-well HTRF® (Cisbio, Codolet, France) assay format in Greiner low volume nb 384-well microtiter plates and is used for high throughput screen. 250 nM GST-tagged Tankyrase-1 (1023-1327 aa), respectively about 250 nM GST-tagged Tankyrase-2 (873-1166 aa) and 5 μM bio-NAD (Biolog, Life science Inst., Bremen, Germany) as co-substrate are incubated in a total volume of 5 μl (50 mM HEPES, 4 mM Mg-chloride, 0.05% Pluronic F-68, 1.4 mM DTT, 0.5% DMSO, pH 7.7) in the absence or presence of the test compound (10 dilution concentrations) for 90 min at 30° C. The reaction is stopped by the addition of 1 μl 50 mM EDTA solution. 2 μl of the detection solution (1.6 μM SA-Xlent® (Cisbio, Codolet, France), 7.4 nM Anti-GST-K® (Eu-labelled anti-GST, Cisbio, Codolet, France) in 50 mM HEPES, 800 mM KF, 0.1% BSA, 20 mM EDTA, 0.1% CHAPS, pH 7.0) are added. After 1 h incubation at room temperature the HTRF is measured with an Envision multimode reader (Perkin Elmer LAS Germany GmbH) at excitation wavelength 340 nm (laser mode) and emission wavelengths 615 nm and 665 nm. The ratio of the emission signals is determined. The full value used is the inhibitor-free reaction. The pharmacological zero value used is XAV-939 (Tocris) in a final concentration of 5 μM. The inhibitory values (IC50) are determined using either the program Symyx Assay Explorer® or Condosseo® from GeneData.

[2] = tested on: tankyrase 1/2; assay: Cellular inhibition of Tankyrase: increase of Axin2 level in DLD1 cells (Luminex); type: cell-based; settings: 24 hours, read-out: EC50 tankyrase 1/2 (cell assay)
Method: Measurement of Cellular Inhibition of Tankyrase
Since Tankyrases have been described to modulate cellular level of Axin2 (Huang et al., 2009; Nature) the increase of Axin2 level is used as read-out for determination of cellular inhibition of Tankyrases in a Luminex based assay.
Cells of the colon carcinoma cell line DLD1 are plated in 96 well plates with 1.5×10^4 cells per well. Next day, cells are treated with a serial dilution of test compound in seven steps as triplicates with a final DMSO concentration of 0.3%. After 24 hours, cells are lysed in lysis buffer (20 mM Tris/HCl pH 8.0, 150 mM NaCl, 1% NP40, 10% Glycerol) and lysates are cleared by centrifugation through a 96 well filter plate (0.65 μm). Axin2 protein is isolated from cell lysates by incubation with a monoclonal anti-Axin2 antibody (R&D Systems #MAB6078) that is bound to fluorescent carboxybeads. Then, bound Axin2 is specifically detected with a polyclonal anti-Axin2 antibody (Cell Signaling #2151) and an appropriate PE-fluorescent secondary antibody. The amount of isolated Axin2 protein is determined in a Luminex^200 machine (Luminex Corporation) according to the manufacturer's instruction by counting 100 events per well. Inhibition of Tankyrase by test compounds results in higher levels of Axin2 which directly correlates with an increase of detectable fluorescence. As controls cells are treated with solvent alone (neutral control) and with a Tankyrase reference inhibitor IWR-2 (3E-06 M) which refers as control for maximum increase of Axin2. For analysis, the obtained data are normalized against the untreated solvent control and fitted for determination of the EC50 values using the Assay Explorer software (Accelrys).

[3] = target: T2, GST-tagged Tankyrase-1 (1023-1327 aa) (Homo sapiens, UniProt O95271); assay: Tankyrase 1 autoparsylation assay (HTRF enzyme assay); type: biochemical
T2 construct: GST-tagged Tankyrase-1 (1023-1327 aa)
T2 sequence (O95271 1023-1327): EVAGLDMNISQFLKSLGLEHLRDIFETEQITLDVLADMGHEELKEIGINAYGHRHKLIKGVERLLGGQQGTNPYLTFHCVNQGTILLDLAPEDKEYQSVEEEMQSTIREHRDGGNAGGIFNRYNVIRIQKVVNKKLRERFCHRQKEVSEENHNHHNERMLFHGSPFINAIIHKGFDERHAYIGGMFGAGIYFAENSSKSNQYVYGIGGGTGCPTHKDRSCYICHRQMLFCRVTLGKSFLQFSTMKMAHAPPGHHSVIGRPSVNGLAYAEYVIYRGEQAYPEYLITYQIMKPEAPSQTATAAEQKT
Method: as §1, §2, §3

T1 sequence (Q9H2K2 873-1166): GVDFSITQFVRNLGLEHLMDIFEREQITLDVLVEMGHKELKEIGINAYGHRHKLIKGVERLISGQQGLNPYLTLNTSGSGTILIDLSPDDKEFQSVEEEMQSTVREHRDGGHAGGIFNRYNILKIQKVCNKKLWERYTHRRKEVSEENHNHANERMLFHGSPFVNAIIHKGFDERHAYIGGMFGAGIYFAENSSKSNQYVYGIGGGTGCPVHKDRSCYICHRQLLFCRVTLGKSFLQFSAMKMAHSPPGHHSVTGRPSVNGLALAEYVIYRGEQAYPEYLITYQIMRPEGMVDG

IC50 [3] [nM] | SMILES | IC50 [1] [µM] | EC50 [2] [nM]
300 to 3000 | O=c1[nH]c(-c2ccccc2)cn2cccc12 [Compound A2, 3-phenyl-2H-pyrrolo[1,2-a]pyrazin-1-one] | 0.3 to 3 | –
300 to 3000 | Cn1cc(-c2cn3cccc3c(=O)[nH]2)cn1 [Compound A14, 3-(1-methyl-1H-pyrazol-4-yl)-2H-pyrrolo[1,2-a]pyrazin-1-one] | 0.3 to 3 | –
300 to 3000 | O=c1[nH]c(-c2ccc(OC(F)(F)F)cc2)cn2nccc12 [Compound A16, 6-(4-trifluoromethoxy-phenyl)-5H-pyrazolo[1,5-a]pyrazin-4-one] | 3 to 50 | –
300 to 3000 | CC(C)Oc1ccc(-c2cn3nc(CO)cc3c(=O)[nH]2)cc1 [Compound A20, 2-hydroxymethyl-6-(4-isopropoxy-phenyl)-5H-pyrazolo[1,5-a]pyrazin-4-one] | 3 to 50 | –
300 to 3000 | Cc1nc(-c2ccc(-c3cn4nc(CO)cc4c(=O)[nH]3)cc2)no1 [Compound A21, 2-hydroxymethyl-6-[4-(5-methyl-[1,2,4]oxadiazol-3-yl)-phenyl]-5H-pyrazolo[1,5-a]pyrazin-4-one] | 3 to 50 | –
3000 to 50000 | CC(C)n1cc(-c2cn3nc(CO)cc3c(=O)[nH]2)cn1 [Compound A22, 2-hydroxymethyl-6-(1-isopropyl-1H-pyrazol-4-yl)-5H-pyrazolo[1,5-a]pyrazin-4-one] | – | –
< 300 | O=c1[nH]c(-c2ccc(Br)cc2)cn2cccc12 [Compound A24, 3-(4-bromo-phenyl)-2H-pyrrolo[1,2-a]pyrazin-1-one] | < 0.3 | –
< 300 | O=c1[nH]c(-c2ccc(-c3cnn(CCOC4CCCCO4)c3)cc2)cn2cccc12 (stereo not drawn) [Compound A31, 3-(4-{1-[2-(tetrahydro-pyran-2-yloxy)-ethyl]-1H-pyrazol-4-yl}-phenyl)-2H-pyrrolo[1,2-a]pyrazin-1-one] | 0.3 to 3 | –
300 to 3000 | O=c1[nH]c(-c2ccc(OC(F)(F)F)cc2)cn2nc(CCl)cc12 [Compound A33, 2-chloromethyl-6-(4-trifluoromethoxy-phenyl)-5H-pyrazolo[1,5-a]pyrazin-4-one] | – | –
300 to 3000 | O=c1[nH]c(-c2ccc(Br)cc2)cn2nc(CBr)cc12 [Compound A36, 2-bromomethyl-6-(4-bromo-phenyl)-5H-pyrazolo[1,5-a]pyrazin-4-one] | 3 to 50 | –
300 to 3000 | Cc1cc2c(=O)[nH]c(-c3cnn(C(C)(C)C)c3)cn2n1 [Compound A52, 2-methyl-6-(1-tert-butyl-1H-pyrazol-4-yl)-5H-pyrazolo[1,5-a]pyrazin-4-one] | 3 to 50 | –
< 300 | CC(C)(C)c1ccc(-c2cn3nc(C(F)(F)F)cc3c(=O)[nH]2)cc1 [Compound A55, 6-(4-tert-butyl-phenyl)-2-trifluoromethyl-5H-pyrazolo[1,5-a]pyrazin-4-one] | – | –
< 300 | O=c1[nH]c(-c2ccc(Br)cc2)cn2cc(F)cc12 [Compound A58, 3-(4-bromo-phenyl)-7-fluoro-2H-pyrrolo[1,2-a]pyrazin-1-one] | < 0.3 | –
– | CC(C)(O)c1ccc(-c2cn3cc(C#N)cc3c(=O)[nH]2)cc1 [Compound A62, 3-[4-(1-hydroxy-1-methyl-ethyl)-phenyl]-1-oxo-1,2-dihydro-pyrrolo[1,2-a]pyrazine-7-carbonitrile] | – | 3000 to 50000
300 to 3000 | O=c1[nH]c(-c2ccc(Br)cc2)cn2nc(C(F)(F)F)cc12 [Compound A67, 6-(4-bromo-phenyl)-2-trifluoromethyl-5H-pyrazolo[1,5-a]pyrazin-4-one] | – | –
– | O=c1[nH]c(-c2ccc(C3CCNCC3)cc2)cn2cc(Cl)cc12 [Compound A78, 7-Chloro-3-(4-piperidin-4-yl-phenyl)-2H-pyrrolo[1,2-a]pyrazin-1-one] | – | 300 to 3000

SMILES | IC50 [3] [nM] | IC50 [1] [µM] | EC50 [2] [nM]
C=C(CCCO)c1ccc(-c2cn3cc(F)cc3c(=O)[nH]2)cc1 (single isomer, unassigned) [Compound A74, 7-fluoro-3-[4-(4-hydroxy-1-methylene-butyl)-phenyl]-2H-pyrrolo[1,2-a]pyrazin-1-one] | < 300 | 0.3 to 3 | 300 to 3000
CC1(C)CCC(C)(C)c2cc(-c3cn4cccc4c(=O)[nH]3)ccc21 [Compound A5, 3-(5,5,8,8-tetramethyl-5,6,7,8-tetrahydro-naphthalen-2-yl)-2H-pyrrolo[1,2-a]pyrazin-1-one] | 3000 to 50000 | – | –
O=c1[nH]c(-c2ccc(N3CCCC3)cc2)cn2nccc12 [Compound A17, 6-(4-pyrrolidin-1-yl-phenyl)-5H-pyrazolo[1,5-a]pyrazin-4-one] | < 300 | < 0.3 | 300 to 3000
O=c1[nH]c(-c2ccc(N3CCCC3)cc2)cn2nc(CO)cc12 [Compound A19, 2-hydroxymethyl-6-(4-pyrrolidin-1-yl-phenyl)-5H-pyrazolo[1,5-a]pyrazin-4-one] | < 300 | 0.3 to 3 | 300 to 3000
COCCn1cc(-c2ccc(-c3cn4cccc4c(=O)[nH]3)cc2)cn1 [Compound A26, 3-{4-[1-(2-methoxy-ethyl)-1H-pyrazol-4-yl]-phenyl}-2H-pyrrolo[1,2-a]pyrazin-1-one] | < 300 | < 0.3 | 300 to 3000
O=c1[nH]c(-c2ccc(-c3cnn(CCN4CCCC4)c3)cc2)cn2cccc12 [Compound A27, 3-{4-[1-(2-pyrrolidin-1-yl-ethyl)-1H-pyrazol-4-yl]-phenyl}-2H-pyrrolo[1,2-a]pyrazin-1-one] | < 300 | < 0.3 | 300 to 3000
COC(=O)c1ccc(-c2cn3cccc3c(=O)[nH]2)cc1 [Compound A28, 4-(1-oxo-1,2-dihydro-pyrrolo[1,2-a]pyrazin-3-yl)-benzoic acid methyl ester] | < 300 | 0.3 to 3 | 300 to 3000
Cc1cc2c(=O)[nH]c(-c3ccc(C(C)(C)C)cc3)cn2n1 [Compound A30, 6-(4-tert-butyl-phenyl)-2-methyl-5H-pyrazolo[1,5-a]pyrazin-4-one] | < 300 | 0.3 to 3 | < 300
O=c1[nH]c(-c2ccc(-c3cnn(CCO)c3)cc2)cn2cccc12 [Compound A32, 3-{4-[1-(2-hydroxy-ethyl)-1H-pyrazol-4-yl]-phenyl}-2H-pyrrolo[1,2-a]pyrazin-1-one] | < 300 | < 0.3 | 300 to 3000
Cc1cc2c(=O)[nH]c(-c3ccc(OC(F)(F)F)cc3)cn2n1 [Compound A34, 2-methyl-6-(4-trifluoromethoxy-phenyl)-5H-pyrazolo[1,5-a]pyrazin-4-one] | < 300 | 0.3 to 3 | 300 to 3000
CC(C)(C)c1ccc(-c2cn3nc(CF)cc3c(=O)[nH]2)cc1 [Compound A64, 6-(4-tert-butyl-phenyl)-2-fluoromethyl-5H-pyrazolo[1,5-a]pyrazin-4-one] | < 300 | 0.3 to 3 | 300 to 3000
CC(C)(C)c1ccc(-c2cn3nc(C(F)F)cc3c(=O)[nH]2)cc1 [Compound A66, 6-(4-tert-butyl-phenyl)-2-difluoromethyl-5H-pyrazolo[1,5-a]pyrazin-4-one] | < 300 | 0.3 to 3 | 300 to 3000
CC(C)(O)c1ccc(-c2cn3nc(C(F)(F)F)cc3c(=O)[nH]2)cc1 [Compound A69, 6-[4-(1-hydroxy-1-methyl-ethyl)phenyl]-2-trifluoromethyl-5H-pyrazolo[1,5-a]pyrazin-4-one] | 300 to 3000 | 3 to 50 | 3000 to 50000
